Experimental data as given in PubChem BioAssay (NCI).
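Results reflect a 48-hour exposure of cells in 96-well plates to compound at five concentrations. GI50: concentration for 50% inhibition of growth. At the TGI there is no net growth.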

Experiments:
Experiment in all cases: DTP human tumour cell line panel, 48 h
786-0 renal = tested on: 786-0 renal
A498 renal = tested on: A498 renal
A549 NSCLC = tested on: A549 NSCLC
ACHN renal = tested on: ACHN renal
BT-549 breast = tested on: BT-549 breast
CAKI-1 renal = tested on: CAKI-1 renal
CCRF-CEM leukemia = tested on: CCRF-CEM leukemia
COLO 205 colon = tested on: COLO 205 colon
DU-145 prostate = tested on: DU-145 prostate
EKVX NSCLC = tested on: EKVX NSCLC
HCC-2998 colon = tested on: HCC-2998 colon
HCT-116 colon = tested on: HCT-116 colon
HCT-15 colon = tested on: HCT-15 colon
HL-60(TB) leukemia = tested on: HL-60(TB) leukemia
HOP-62 NSCLC = tested on: HOP-62 NSCLC
HOP-92 NSCLC = tested on: HOP-92 NSCLC
HS 578T breast = tested on: HS 578T breast
HT29 colon = tested on: HT29 colon
IGROV1 ovarian = tested on: IGROV1 ovarian
K-562 leukemia = tested on: K-562 leukemia
KM12 colon = tested on: KM12 colon
LOX IMVI melanoma = tested on: LOX IMVI melanoma
M14 melanoma = tested on: M14 melanoma
MALME-3M melanoma = tested on: MALME-3M melanoma
MCF7 breast = tested on: MCF7 breast
MDA-MB-231 breast = tested on: MDA-MB-231 breast
MDA-MB-435 = tested on: MDA-MB-435
MDA-MB-468 breast = tested on: MDA-MB-468 breast
MOLT-4 leukemia = tested on: MOLT-4 leukemia
NCI-H226 lung = tested on: NCI-H226 lung
NCI-H23 lung = tested on: NCI-H23 lung
NCI-H460 lung = tested on: NCI-H460 lung
NCI-H522 lung = tested on: NCI-H522 lung
NCI/ADR-RES ovarian = tested on: NCI/ADR-RES ovarian
OVCAR-3 ovarian = tested on: OVCAR-3 ovarian
OVCAR-4 ovarian = tested on: OVCAR-4 ovarian
OVCAR-5 ovarian = tested on: OVCAR-5 ovarian
OVCAR-8 ovarian = tested on: OVCAR-8 ovarian
PC-3 prostate = tested on: PC-3 prostate
RPMI-8226 leukemia = tested on: RPMI-8226 leukemia
RXF 393 renal = tested on: RXF 393 renal
SF-268 CNS = tested on: SF-268 CNS
SF-295 CNS = tested on: SF-295 CNS
SF-539 CNS = tested on: SF-539 CNS
SK-MEL-2 melanoma = tested on: SK-MEL-2 melanoma
SK-MEL-28 melanoma = tested on: SK-MEL-28 melanoma
SK-MEL-5 melanoma = tested on: SK-MEL-5 melanoma
SK-OV-3 ovarian = tested on: SK-OV-3 ovarian
SN12C renal = tested on: SN12C renal
SNB-19 CNS = tested on: SNB-19 CNS
SNB-75 CNS = tested on: SNB-75 CNS
SR leukemia = tested on: SR leukemia
SW-620 colon = tested on: SW-620 colon
T-47D breast = tested on: T-47D breast
TK-10 renal = tested on: TK-10 renal
U251 CNS = tested on: U251 CNS
UACC-257 melanoma = tested on: UACC-257 melanoma
UACC-62 melanoma = tested on: UACC-62 melanoma
UO-31 renal = tested on: UO-31 renal

Work on O=C(CS(=O)(=O)c1oc(-c2ccc(Cl)cc2)nc1S(=O)(=O)c1ccc(Cl)cc1)N1CCOCC1 yielded a GI50 (786-0 renal) of 7.65 µM, a TGI (786-0 renal) of 21.8 µM and a GI50 (A498 renal) of 26.8 µM. For the same molecule, the TGI (A498 renal) was 93.4 µM, the GI50 (A549 NSCLC) was 45.9 µM and the TGI (A549 NSCLC) was over 100 µM. The GI50 (ACHN renal) was 3.17 µM, the TGI (ACHN renal) was 11.3 µM and the GI50 (BT-549 breast) was 4.64 µM. The TGI (BT-549 breast) was 16.8 µM, the GI50 (CAKI-1 renal) was 6.63 µM and the TGI (CAKI-1 renal) was 19.4 µM. The GI50 (CCRF-CEM leukemia) was 1.68 µM, the TGI (CCRF-CEM leukemia) was 24.2 µM and the GI50 (COLO 205 colon) was 11.6 µM. It also gave a TGI (COLO 205 colon) of 55.9 µM, a GI50 (DU-145 prostate) of 12.3 µM and a TGI (DU-145 prostate) of 24.8 µM. For the same molecule, the GI50 (EKVX NSCLC) was 12.1 µM, the TGI (EKVX NSCLC) was 26.4 µM and the GI50 (HCC-2998 colon) was 17.2 µM. It also gave a TGI (HCC-2998 colon) of 40.8 µM, a GI50 (HCT-116 colon) of 3.04 µM and a TGI (HCT-116 colon) of 11.4 µM. For the same molecule, the GI50 (HCT-15 colon) was 2.27 µM, the TGI (HCT-15 colon) was 5.68 µM and the GI50 (HL-60(TB) leukemia) was 4.49 µM. For the same molecule, the TGI (HL-60(TB) leukemia) was 34.9 µM, the GI50 (HOP-62 NSCLC) was 18.1 µM and the TGI (HOP-62 NSCLC) was 47.3 µM. The GI50 (HOP-92 NSCLC) was 10.7 µM, the TGI (HOP-92 NSCLC) was 28.6 µM and the GI50 (HS 578T breast) was 7.9 µM. For the same molecule, the TGI (HS 578T breast) was 36.4 µM, the GI50 (HT29 colon) was 4.32 µM and the TGI (HT29 colon) was 40.2 µM. For the same molecule, the GI50 (IGROV1 ovarian) was 11 µM, the TGI (IGROV1 ovarian) was 23.7 µM and the GI50 (K-562 leukemia) was 2.14 µM. It also gave a TGI (K-562 leukemia) of over 100 µM, a GI50 (KM12 colon) of 29.5 µM and a TGI (KM12 colon) of over 100 µM. The GI50 (LOX IMVI melanoma) was 1.84 µM, the TGI (LOX IMVI melanoma) was 4.27 µM and the GI50 (M14 melanoma) was 6.75 µM. The TGI (M14 melanoma) was 21 µM, the GI50 (MALME-3M melanoma) was 2.81 µM and the TGI (MALME-3M melanoma) was 9.77 µM. It also gave a GI50 (MCF7 breast) of 4 µM, a TGI (MCF7 breast) of 18.5 µM and a GI50 (MDA-MB-231 breast) of 6.7 µM. It also gave a TGI (MDA-MB-231 breast) of 19.3 µM, a GI50 (MDA-MB-435) of 12 µM and a TGI (MDA-MB-435) of 25.7 µM. The GI50 (MDA-MB-468 breast) was 2.52 µM, the TGI (MDA-MB-468 breast) was 8.07 µM and the GI50 (MOLT-4 leukemia) was 2.54 µM. It also gave a TGI (MOLT-4 leukemia) of 18.7 µM, a GI50 (NCI-H226 lung) of 22.9 µM and a TGI (NCI-H226 lung) of 91 µM. It also gave a GI50 (NCI-H23 lung) of 13.4 µM, a TGI (NCI-H23 lung) of 26.5 µM and a GI50 (NCI-H460 lung) of 16.5 µM. It also gave a TGI (NCI-H460 lung) of 39.4 µM, a GI50 (NCI-H522 lung) of 1.64 µM and a TGI (NCI-H522 lung) of 3.51 µM. It also gave a GI50 (NCI/ADR-RES ovarian) of 14.5 µM, a TGI (NCI/ADR-RES ovarian) of 31.2 µM and a GI50 (OVCAR-3 ovarian) of 3.3 µM. For the same molecule, the TGI (OVCAR-3 ovarian) was 10.5 µM, the GI50 (OVCAR-4 ovarian) was 12.7 µM and the TGI (OVCAR-4 ovarian) was 27.6 µM. It also gave a GI50 (OVCAR-5 ovarian) of 13.6 µM, a TGI (OVCAR-5 ovarian) of 31.6 µM and a GI50 (OVCAR-8 ovarian) of 15.4 µM. The TGI (OVCAR-8 ovarian) was 35.4 µM, the GI50 (PC-3 prostate) was 11.9 µM and the TGI (PC-3 prostate) was 31.5 µM. It also gave a GI50 (RPMI-8226 leukemia) of 5.2 µM, a TGI (RPMI-8226 leukemia) of over 100 µM and a GI50 (RXF 393 renal) of 2.58 µM. The TGI (RXF 393 renal) was 8.82 µM, the GI50 (SF-268 CNS) was 15.1 µM and the TGI (SF-268 CNS) was 33.7 µM. It also gave a GI50 (SF-295 CNS) of 16.9 µM, a TGI (SF-295 CNS) of 54.7 µM and a GI50 (SF-539 CNS) of 7.94 µM. For the same molecule, the TGI (SF-539 CNS) was 20.5 µM, the GI50 (SK-MEL-2 melanoma) was 16.7 µM and the TGI (SK-MEL-2 melanoma) was 32.4 µM. For the same molecule, the GI50 (SK-MEL-28 melanoma) was 12.1 µM, the TGI (SK-MEL-28 melanoma) was 24.5 µM and the GI50 (SK-MEL-5 melanoma) was 24.3 µM. It also gave a TGI (SK-MEL-5 melanoma) of 86.3 µM, a GI50 (SK-OV-3 ovarian) of 40.8 µM and a TGI (SK-OV-3 ovarian) of over 100 µM. The GI50 (SN12C renal) was 12.1 µM, the TGI (SN12C renal) was 25.8 µM and the GI50 (SNB-19 CNS) was 27.5 µM. For the same molecule, the TGI (SNB-19 CNS) was over 100 µM, the GI50 (SNB-75 CNS) was 4.89 µM and the TGI (SNB-75 CNS) was 23.2 µM. It also gave a GI50 (SR leukemia) of 2.86 µM, a TGI (SR leukemia) of over 100 µM and a GI50 (SW-620 colon) of 2.06 µM. For the same molecule, the TGI (SW-620 colon) was 4.8 µM, the GI50 (T-47D breast) was 3.32 µM and the TGI (T-47D breast) was 16.3 µM. For the same molecule, the GI50 (TK-10 renal) was 14.3 µM, the TGI (TK-10 renal) was 27.8 µM and the GI50 (U251 CNS) was 38 µM. The TGI (U251 CNS) was over 100 µM, the GI50 (UACC-257 melanoma) was 15.4 µM and the TGI (UACC-257 melanoma) was 30.2 µM. For the same molecule, the GI50 (UACC-62 melanoma) was 11.1 µM, the TGI (UACC-62 melanoma) was 23.8 µM and the GI50 (UO-31 renal) was 8.79 µM. For the same molecule, the TGI (UO-31 renal) was 21.1 µM.
